Source: patent US20250162973A1, “METHODS OF SYNTHESIS AND USES OF AGRIMOL COMPOUNDS” (Versitech Limited, priority 2022, published 2025)

Tests used:
CS [1] = target: T1, CS (Homo sapiens, UniProt O75390); assay: Tryptophan fluorescence quenching assay; format: binding
T1 sequence (O75390 28-466): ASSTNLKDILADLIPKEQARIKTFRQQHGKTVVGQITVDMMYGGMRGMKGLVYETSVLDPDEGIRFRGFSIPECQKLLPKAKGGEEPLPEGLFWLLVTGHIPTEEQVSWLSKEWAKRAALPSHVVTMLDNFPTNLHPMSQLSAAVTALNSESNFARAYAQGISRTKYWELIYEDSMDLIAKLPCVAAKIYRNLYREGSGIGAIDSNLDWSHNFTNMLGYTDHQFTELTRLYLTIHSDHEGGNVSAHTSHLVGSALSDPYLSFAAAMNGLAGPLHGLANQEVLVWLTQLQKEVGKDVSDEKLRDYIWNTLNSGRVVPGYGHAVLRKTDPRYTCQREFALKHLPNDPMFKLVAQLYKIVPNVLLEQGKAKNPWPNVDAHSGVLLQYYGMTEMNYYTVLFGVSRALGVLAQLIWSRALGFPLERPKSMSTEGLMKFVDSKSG
Method: (§1) FIG. 5A is a volcano plot (ΔTm, p-value) for TPP data obtained from NCI-H460 cells with 4 μM AGB treatment for 1 h. The criteria were set as ΔTm>2° C. and p<0.05. FIG. 5B is a graph showing results of the tryptophan fluorescence quenching assay for the direct interaction between AGB and three target proteins. Upper, tryptophan fluorescence titration of recombinant proteins with AGB. […] For CS, its fluorescence decrease was saturated when AGB concentrations increased to about 32 μM. Lower, the normalized tryptophan intensities at an emission of 320 nm were plotted as a function of total added concentration of AGB. The dissociation constants (Kd) between AGB and three proteins were then calculated by fitting this plot with Stern-Volmer Equation. […] The fluorescence intensity was presented as percentage relative to control groups. […]
(§2) To further examine whether AGB interacts directly with the above three identified proteins, the intrinsic tryptophan fluorescence properties of these proteins were examined in the presence of AGB at different concentrations. Upon binding with AGB, proteins experience a change of the tryptophan environment, which can be visualized by fluorescence spectroscopy. As shown in FIG. 5B the tryptophan fluorescence of three proteins were all quenched by AGB in a concentration-dependent manner.

HSP60 [2] = target: T2, HSP60 (Homo sapiens, UniProt P10809); assay: Tryptophan fluorescence quenching assay; conditions: Stern-Volmer analysis; read-out: Kd of AGB binding to HSP60
Method: as §1, §2

TALDO1 = target: T3, TALDO1 (Homo sapiens, UniProt P37837); assay: Tryptophan fluorescence quenching assay; conditions: Stern-Volmer analysis; read-out: Kd of AGB binding to TALDO1
T3 construct: endogenous in cells
T3 sequence (P37837 1-337): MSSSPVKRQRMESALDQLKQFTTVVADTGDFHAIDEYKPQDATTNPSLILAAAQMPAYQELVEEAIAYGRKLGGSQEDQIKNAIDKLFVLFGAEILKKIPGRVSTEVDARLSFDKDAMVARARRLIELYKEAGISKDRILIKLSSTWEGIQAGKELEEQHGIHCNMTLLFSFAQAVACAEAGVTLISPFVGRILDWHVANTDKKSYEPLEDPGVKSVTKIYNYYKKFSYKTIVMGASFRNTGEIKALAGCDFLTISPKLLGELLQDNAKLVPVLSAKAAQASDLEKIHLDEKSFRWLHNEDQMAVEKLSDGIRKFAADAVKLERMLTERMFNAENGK
Method: as §1, §2

HSP60 [3] = target: T2, HSP60; assay: MDH refolding assay (chaperone function); format: biochemical; conditions: pre-incubation of Hsp60 with AGB
Text: The function of HSP60 is mainly for its chaperone activity. HSP60 cooperates with co-chaperonin HSP10 to perform the misfolded proteins refolding and reactivate. Mitochondrial malate dehydrogenase (MDH), one of HSP60 substrates, was examined for the inhibition of chaperone function by AGB.

[4] = Maximum tolerated dose (MTD) determination, general toxicity and body weight; format: in vivo
Method: The MTD test in this study was done in collaboration with Tianjin Institute of Pharmaceutical Research (TIPR). […] A total of 80 mice were randomly assigned into four groups (10 male and 10 female mice in each group) in this study. Four groups included 16.0 mg/kg of AGB group, 12.8 mg/kg of AGB group, vehicle control group (10% DMSO+0.8% Tween-80 in normal saline), and the blank control group (normal saline).
Then, the body weights of surviving animals were measured on the 1st, 3rd, 7th and 14th days, respectively. At the end of experiment, the hematology, blood biochemistry, anatomical examination, and histopathology examination were performed in both vehicle control group and the MTD group (12.8 mg/kg). The data were presented as the mean±standard deviation.

CS [5] = target: T1, CS; assay: CS catalytic activity; format: biochemical; conditions: dose-dependent
Text: CS is localized within the mitochondrial matrix and is the key enzyme in the first step of the tricarboxylic acid (TCA) cycle that catalyzes the reaction between acetyl coenzyme A (acetyl CoA) and oxaloacetic acid to form citric acid. […] CS is responsible for the production of citrate in the TCA cycle that mediates mitochondrial aerobic respiration to affect the production of ATP production. Targeting at CS may be feasible to restore the abnormal expression of TCA cycle.

[6] = 16.0 mg/kg, about 1 hour after administration

T2 sequence (P10809 27-573): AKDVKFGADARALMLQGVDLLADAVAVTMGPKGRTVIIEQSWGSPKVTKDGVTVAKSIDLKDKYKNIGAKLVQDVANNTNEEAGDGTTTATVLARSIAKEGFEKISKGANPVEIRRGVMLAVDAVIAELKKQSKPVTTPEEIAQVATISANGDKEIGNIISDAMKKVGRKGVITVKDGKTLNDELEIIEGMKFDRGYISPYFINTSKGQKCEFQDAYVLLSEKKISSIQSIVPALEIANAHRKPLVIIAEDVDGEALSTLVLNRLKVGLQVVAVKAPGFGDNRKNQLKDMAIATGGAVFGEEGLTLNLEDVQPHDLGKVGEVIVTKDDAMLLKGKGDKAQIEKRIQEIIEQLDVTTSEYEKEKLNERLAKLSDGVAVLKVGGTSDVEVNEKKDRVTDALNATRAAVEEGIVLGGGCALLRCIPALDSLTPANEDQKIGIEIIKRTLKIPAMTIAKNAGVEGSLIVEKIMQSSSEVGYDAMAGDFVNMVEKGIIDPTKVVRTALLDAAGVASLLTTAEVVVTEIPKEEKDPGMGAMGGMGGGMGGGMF

## CCCC(=O)c1c(O)c(Cc2c(O)c(Cc3c(O)c(C)c(OC)c(C(=O)CCC)c3O)c(O)c(C(=O)[C@@H](C)CC)c2O)c(O)c(C)c1OC [AGB, Agrimol B]
CS [1]; Stern-Volmer analysis, read-out: Kd of AGB binding to CS
  Kd: 4.9 µM
CS [1]; tryptophan fluorescence titration
  AGB concentration at which the CS fluorescence decrease was saturated: about 32 μM
HSP60 [2]
  Kd: 27 µM
TALDO1
  Kd: 22.7 µM
HSP60 [3]
  MDH refolding activities: concentration-dependent inhibition
[4]; 12.8 mg/kg, d 0, mean ± SD
  body weight of female mice: 20.52 ± 1.00 g
  body weight of male mice: 21.16 ± 1.07 g
[4]; 12.8 mg/kg, d 1, mean ± SD
  body weight of female mice: 20.60 ± 1.18 g
  body weight of male mice: 21.27 ± 1.46 g
[4]; 12.8 mg/kg, d 3, mean ± SD
  body weight of female mice: 21.14 ± 0.99 g
  body weight of male mice: 21.89 ± 1.51 g
[4]; 12.8 mg/kg, d 7, mean ± SD
  body weight of female mice: 23.68 ± 1.83 g
  body weight of male mice: 25.64 ± 1.54 g
[4]; 12.8 mg/kg, d 14, mean ± SD
  body weight of female mice: 26.38 ± 1.63 g
  body weight of male mice: 31.60 ± 2.37 g
[4]; 12.8 mg/kg, day of dosing and recovery period
  symptoms of toxic reactions: No symptoms of toxic reactions were observed
[4]; 16.0 mg/kg, about 30 minutes after administration
  animals with reduced activities: 13/20
[4]; [6]
  mice appearing prone: 3/20
  mice with ptosis: 1/20
[4]; 16.0 mg/kg, d 0, mean ± SD
  body weight of female mice: 20.57 ± 0.90 g
  body weight of male mice: 21.24 ± 0.58 g
[4]; 16.0 mg/kg, d 1, mean ± SD
  body weight of female mice: 18.76 ± 0.89 g
  body weight of male mice: 19.64 ± 1.15 g
[4]; 16.0 mg/kg, d 3, mean ± SD
  body weight of female mice: 19.61 ± 1.50 g
  body weight of male mice: 20.04 ± 1.42 g
[4]; 16.0 mg/kg, d 7, mean ± SD
  body weight of female mice: 22.76 ± 1.26 g
  body weight of male mice: 24.25 ± 1.48 g
[4]; 16.0 mg/kg, d 14, mean ± SD
  body weight of female mice: 25.61 ± 0.87 g
  body weight of male mice: 31.48 ± 1.73 g
[4]; both sexes, mouse, in vivo, iv, single i.v. injection, ICR mice
  MTD at 14 day: 12.8 mg/kg
CS [5]
  AGB concentration at which a significant decrease in the enzyme activity was observed: 5 µM
